Among the data in paper PMC5764323, “The etomidate analog ET-26 HCl retains superior myocardial performance: Comparisons with etomidate in vivo and in vitro” (PLoS ONE, 2018) are IC50 values, retold here.

The assay addresses T1, human ether-a-go-go-related gene (hERG) channel (Homo sapiens, UniProt Q12809).
T1 construct: gene KCNH2
As to the kind of experiment: whole-cell patch clamp, hERG tail current in HEK-293 cells. The format is cell-based. The source says:
whole-cell patch clamp, hERG tail current in HEK-293 cells on human ether-a-go-go-related gene (hERG) channel | etomidate inhibited the tail current of the hERG in a concentration-dependent manner | The etomidate analogue, ET-26 HCl, inhibited the hERG current in a similar concentration-dependent manner
Background: The patch-clamp technique gives a direct electrical read-out from membranes.

Structures can show the parent of a compound that is named as a salt.

T1 sequence (Q12809 whole entry): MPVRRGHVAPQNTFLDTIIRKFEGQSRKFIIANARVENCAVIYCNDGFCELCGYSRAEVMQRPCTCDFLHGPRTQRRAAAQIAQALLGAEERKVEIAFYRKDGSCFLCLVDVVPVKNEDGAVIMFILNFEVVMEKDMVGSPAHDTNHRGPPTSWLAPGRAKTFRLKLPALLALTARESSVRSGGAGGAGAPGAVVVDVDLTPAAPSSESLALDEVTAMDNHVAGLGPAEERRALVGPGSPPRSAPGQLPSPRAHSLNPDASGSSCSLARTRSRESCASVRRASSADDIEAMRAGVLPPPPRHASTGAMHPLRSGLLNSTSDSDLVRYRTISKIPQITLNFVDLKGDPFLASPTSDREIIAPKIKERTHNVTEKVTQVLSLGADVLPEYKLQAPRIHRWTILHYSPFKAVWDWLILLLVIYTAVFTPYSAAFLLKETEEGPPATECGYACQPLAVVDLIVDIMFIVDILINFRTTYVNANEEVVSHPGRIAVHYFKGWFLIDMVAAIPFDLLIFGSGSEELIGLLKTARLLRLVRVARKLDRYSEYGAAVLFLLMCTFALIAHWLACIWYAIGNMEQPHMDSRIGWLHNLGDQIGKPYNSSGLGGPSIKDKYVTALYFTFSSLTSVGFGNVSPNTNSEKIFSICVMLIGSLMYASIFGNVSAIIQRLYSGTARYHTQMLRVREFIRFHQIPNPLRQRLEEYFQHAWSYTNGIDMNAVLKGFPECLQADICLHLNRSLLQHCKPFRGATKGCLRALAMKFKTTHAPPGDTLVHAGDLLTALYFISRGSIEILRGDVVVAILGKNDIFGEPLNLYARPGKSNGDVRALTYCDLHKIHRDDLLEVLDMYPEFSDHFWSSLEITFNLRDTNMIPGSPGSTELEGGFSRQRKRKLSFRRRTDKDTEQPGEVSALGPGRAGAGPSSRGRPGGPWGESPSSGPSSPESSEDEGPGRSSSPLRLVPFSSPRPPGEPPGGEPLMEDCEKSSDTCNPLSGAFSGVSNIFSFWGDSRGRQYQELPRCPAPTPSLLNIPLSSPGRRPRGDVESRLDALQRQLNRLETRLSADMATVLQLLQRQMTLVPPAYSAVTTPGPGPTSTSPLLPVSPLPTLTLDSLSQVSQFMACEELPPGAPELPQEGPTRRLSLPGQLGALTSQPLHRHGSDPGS

Consider `COCCOC(=O)c1cncn1[C@H](C)c1ccccc1` [ET-26 HCl, (R)-2-methoxyethyl1-(1-phenylethyl)-1H-imidazole-5-carboxylate hydrochloride], for which the IC50 (as a rule, the concentration that inhibits the measured activity by half) is 743 µM.
Consider `CCOC(=O)c1cncn1[C@H](C)c1ccccc1` [etomidate], for which the half-inhibitory concentration (IC50) was 264 µM.
